Measured values taken from patent publication US7419969B2 (Bristol-Myers Squibb Company, priority 2004, dated 2008).

target: T1, HIV-integrase (Human immunodeficiency virus type 1 group M subtype B, UniProt P04585); test: in-vitro activity against HIV-integrase (HIV Integrase Inhibition, SPA bead assay); type: biochemical; settings: Table 1; recombinant integrase, activity class
T1 construct: Recombinant integrase (0.26 ng) was incubated with the beads
Experimental: To evaluate in-vitro activity against HIV-integrase, 5 pmole of biotin labeled substrate DNA was bound to 100 μg of Streptavidin coated PVT SPA beads (Amersham Pharmacia Biotech). Recombinant integrase (0.26 ng) was incubated with the beads for 90 min at 37° C. Unbound enzyme was removed by washing the complex followed by addition of inhibitors and […] of P33 labeled target DNA. The reaction was stopped by adding EDTA to a final concentration of 10 mM. Samples were counted in TopCountNXT (Packard) and the CPM was used as a measure of integration. The reaction condition was as described in Engelman, A. and Craigie, R. J. Vitrol. 1996, 69, 5908. The sequences of substrate and target DNA were described in Nucleic Acid Research 1994, 22, 1121.

First: O=C(NCc1ccc(F)cc1N1CCCCS1(=O)=O)c1nc2n(c(=O)c1O)CCCC21CCCC1 [Example 9, N-[[4-fluoro-2-(tetrahydro-1,1-dioxido-2H-1,2-thiazin-2-yl)phenyl]methyl]-7′,8′-dihydro-3′-hydroxy-4′-oxo-spiro[cyclopentane-1,9′(6′H)-[4H]pyrido[1,2-α]pyrimidine]-2′-carboxamide]
Second: O=C(NCc1cc(F)ccc1F)c1nc2n(c(=O)c1O)CCCC21CCC1 [Example 75, N-[(2,5-difluorophenyl)methyl]-7′,8′-dihydro-3′-hydroxy-4′-oxo-spiro[cyclobutane-1,9′(6′H)-[4H]pyrido[1,2-α]pyrimidine]-2′-carboxamide]
The IC50 of the first is lower: 1 to 10 nM for the first, 10 to 100 nM for the second. The first is the more potent here.

`O=C(NCc1ccccc1)c1nc2n(c(=O)c1O)CCOC21CCCC1` [Example 14, N-(phenylmethyl)-6′,7′-dihydro-3′-hydroxy-4′-oxo-spiro[cyclopentane-1,9′(4′H)-pyrimido[2,1-c][1,4]oxazine]-2′-carboxamide] and `O=C(NCc1ccc(F)cc1)c1nc2n(c(=O)c1O)CCOC21CCCC1` [Example 15, N-[(4-fluorophenyl)methyl]-6′,7′-dihydro-3′-hydroxy-4′-oxo-spiro[cyclopentane-1,9′(4′H)-pyrimido[2,1-c][1,4]oxazine]-2′-carboxamide] fall in the same range of IC50: 1 to 10 nM for the first, 1 to 10 nM for the second.

First: CN(C)S(=O)(=O)c1cc(F)ccc1CNC(=O)c1nc2n(c(=O)c1O)CCOC21CCCC1 [Example 28, N-[[(2-(dimethylamino)sulfonyl]-4-fluorophenyl)methyl]-6′,7′-dihydro-3′-hydroxy-4′-oxo-spiro[cyclopentane-1,9′(4′H)-pyrimido[2,1-c][1,4]oxazine]-2′-carboxamide]
Second: CN(C)S(=O)(=O)c1cc(F)ccc1CNC(=O)c1nc2n(c(=O)c1O)CCC21CCCC1 [Example 86, N-[[2-[(dimethylamino)sulfonyl]-4-fluorophenyl]methyl]-6′,7′-dihydro-3′-hydroxy-4′-oxo-spiro[cyclopentane-1,8′(4′H)-pyrrolo[1,2-α]pyrimidine]-2′-carboxamide]
The IC50 of the first is lower: 1 to 10 nM for the first, 10 to 100 nM for the second. The first is the more potent here.

Compared with `O=C(NCc1ccc(F)cc1)c1nc2n(c(=O)c1O)CCOC21CCNCC1` [Example 88, N-[(4-fluorophenyl)methyl]-6′,7′-dihydro-3′-hydroxy-4′-oxo-spiro[piperidine-4,9′(4′H)-pyrimido[2,1-c][1,4]oxazine]-2′-carboxamide], `O=C(NCc1ccc(F)cc1)c1nc2n(c(=O)c1O)CCOC21CCOCC1` [Example 40, N-[(4-fluorophenyl)methyl]-2,3,5,6,6′,7′-hexahydro-3′-hydroxy-4′-oxo-spiro[4H-pyran-4,9′(4′H)-pyrimido[2,1-c][1,4]oxazine]-2′-carboxamide] is lower in IC50: 10 to 100 nM for the first, 1 to 10 nM for the second. The second is the more potent here.

First: CS(=O)(=O)c1cc(F)ccc1CNC(=O)c1nc2n(c(=O)c1O)CCC21CCCC1 [Example 85, N-[[4-fluoro-2-(methylsulfonyl)phenyl]methyl]-6′,7′-dihydro-3′-hydroxy-4′-oxo-spiro[cyclopentane-1,8′(4′H)-pyrrolo[1,2-α]pyrimidine]-2′-carboxamide]
Second: CS(=O)(=O)c1cc(F)ccc1CNC(=O)c1nc2n(c(=O)c1O)CCCOC21CCC1 [Example 58, N-[[4-fluoro-2-(methylsulfonyl)phenyl]methyl]-7′,8′-dihydro-3′-hydroxy-4′-oxo-spiro[cyclobutane-1,10′(4′H)-[6H]pyrimido[2,1-c][1,4]oxazepine]-2′-carboxamide]
The IC50 of the first is lower: 1 to 10 nM for the first, 10 to 100 nM for the second. The first is the more potent here.

`Cc1ccc(CNC(=O)c2nc3n(c(=O)c2O)CCCC32CCC2)cc1F` [Example 73, N-[(3-fluoro-4-methylphenyl)methyl]-7′,8′-dihydro-3′-hydroxy-4′-oxo-spiro[cyclobutane-1,9′(6′H)-[4H]pyrido[1,2-α]pyrimidine]-2′-carboxamide] and `Cc1cc(CNC(=O)c2nc3n(c(=O)c2O)CCCC32CCCC2)ccc1F` [Example 2, N-[(4-fluoro-3-methylphenyl)methyl]-7′,8′-dihydro-3′-hydroxy-4′-oxo-spiro[cyclopentane-1,9′(6′H)-[4H]pyrido[1,2-a]pyrimidine]-2′-carboxamide] fall in the same range of IC50: 1 to 10 nM for the first, 1 to 10 nM for the second.

`O=C(NCc1ccccc1-n1cncn1)c1nc2n(c(=O)c1O)CCCC21CCCC1` [Example 3, N-[[2-(1H-1,2,4-triazol-1-yl)phenyl]methyl]-7′,8′-dihydro-3′-hydroxy-4′-oxo-spiro[cyclopentane-1,9′(6′H)-[4H]pyrido[1,2-α]pyrimidine]-2′-carboxamide] and `O=C(NCc1ccc(F)cc1-n1cncn1)c1nc2n(c(=O)c1O)CCCC21CCC1` [Example 78, N-[[4-fluoro-2-(1H-1,2,4-triazol-1-yl)phenyl]methyl]-7′,8′-dihydro-3′-hydroxy-4′-oxo-spiro[cyclobutane-1,9′(6^1′H)-[4H]pyrido[1,2-α]pyrimidine]-2′-carboxamide] fall in the same range of IC50: 1 to 10 nM for the first, 1 to 10 nM for the second.

First: Cc1ccc(CNC(=O)c2nc3n(c(=O)c2O)CCOC32CCCC2)cc1C [Example 22, N-[(3,4-dimethylphenyl)methyl]-6′,7′-dihydro-3′-hydroxy-4′-oxo-spiro[cyclopentane-1,9′(4′H)-pyrimido[2,1-c][1,4]oxazine]-2′-carboxamide]
Second: CSc1cc(F)ccc1CNC(=O)c1nc2n(c(=O)c1O)CCOC21CCCC1 [Example 18, N-[[4-fluoro-2-(methylthio)phenyl]methyl]-6′,7′-dihydro-3′-hydroxy-4′-oxo-spiro[cyclopentane-1,9′(4′H)-pyrimido[2,1-c][1,4]oxazine]-2′-carboxamide]
The IC50 of the first is higher: 10 to 100 nM for the first, 1 to 10 nM for the second.

First: COc1ccc(CNC(=O)c2nc3n(c(=O)c2O)CCCC32CCC2)cc1 [Example 64, N-[(4-methoxyphenyl)methyl]-7′,8′-dihydro-3′-hydroxy-4′-oxo-spiro[cyclobutane-1,9′(6H)^1-[4H]pyrido[1,2-α]pyrimidine]-2′-carboxamide]
Second: O=C(NCc1ccc(F)cc1)c1nc2n(c(=O)c1O)CCCC21CCOCC1 [Example 13, N-[(4-fluorophenyl)methyl]-2,3,5,6,7′,8′-hexahydro-3′-hydroxy-4′-oxo-spiro[4H-pyran-4,9′(6′H)-[4H]pyrido[1,2-a]pyrimidine]-2′-carboxamide]
The IC50 of the first is higher: 10 to 100 nM for the first, 1 to 10 nM for the second.

`Cc1ncnn1-c1cc(F)ccc1CNC(=O)c1nc2n(c(=O)c1O)CCOC21CCOCC1` [Example 49, N-[[4-fluoro-2-(5-methyl-1H-1,2,4-triazol-1-yl)phenyl]methyl]-2,3,5,6,6′, 7-hexahydro-3′-hydroxy-4′-oxo-spiro[4H-pyran-4,9′(4′H)-pyrimido[2,1-c][1,4]oxazine]-2′-carboxamide] and `CSc1cc(F)ccc1CNC(=O)c1nc2n(c(=O)c1O)CCOC21CCOC1` (stereo not shown) [Example 39, N-[[4-fluoro-2-(methylthio)phenyl]methyl]-4,5,6′,7′-tetrahydro-3′-hydroxy-4′-oxo-spiro[furan-3(2H),9′(4′H)-pyrimido[2,1-c][1,4]oxazine]-2′-carboxamide] fall in the same range of IC50: 1 to 10 nM for the first, 1 to 10 nM for the second.

First: O=C(NCCCc1ccc(F)cc1)c1nc2n(c(=O)c1O)CCOC21CCCC1 [Example 31, N-[3-(4-fluorophenyl)propyl]-6′,7′-dihydro-3′-hydroxy-4′-oxo-spiro[cyclopentane-1,9′(4′H)-pyrimido[2,1-c][1,4]oxazine]-2′-carboxamide]
Second: O=C(NCc1ccc(F)cc1)c1nc2n(c(=O)c1O)CCCOC21CCC1 [Example 59, N-[(4-fluorophenyl)methyl]-7′,8′-dihydro-3′-hydroxy-4′-oxo-spiro[cyclobutane-1,1 0′(4′H)-[6H]pyrimido[2,1-c][1,4]oxazepine]-2′-carboxamide]
The IC50 of the first is higher: 10 to 100 nM for the first, 1 to 10 nM for the second. The second is the more potent here.

First: CC(NC(=O)c1nc2n(c(=O)c1O)CCCC21CCC1)c1ccc(F)cc1 (stereo not drawn) [Example 74, N-[1-(4-fluorophenyl)ethyl]-7′,8′-dihydro-3′-hydroxy-4′-oxo-spiro[cyclobutane-1,9′(6′H)-[4H]pyrido[1,2-α]pyrimidine]-2′-carboxamide]
Second: O=C(NCc1cc(F)ccc1-n1cncn1)c1nc2n(c(=O)c1O)CCOC21CCCC1 [Example 29, N-[[5-fluoro-2-(1H-1,2,4-triazol-1-yl)phenyl]methyl]-6′,7′-dihydro-3′-hydroxy-4′-oxo-spiro[cyclopentane-1,9′(4′H)-pyrimido[2,1-c][1,4]oxazine]-2′-carboxamide]
The IC50 of the first is higher: 10 to 100 nM for the first, 1 to 10 nM for the second. The second is the more potent here.

same assay, conditions: Table 1a; recombinant integrase, activity class

`CN1CCn2c(nc(C(=O)NCc3ccc(F)cc3)c(O)c2=O)C12CCC2` [Example 98, Spiro[cyclobutane-1,9′(6′H)-[4H]pyrazino[1,2-a]pyrimidine]-2′-carboxamide, N-[(4-fluorophenyl)methyl]-7′,8′-dihydro-3′-hydroxy-8′-methyl-4′-oxo-] and `Cc1cnnn1-c1cc(F)ccc1CNC(=O)c1nc2n(c(=O)c1O)CCOC21CCC1` [Example 104, Spiro[cyclobutane-1,9′(4′H)-pyrimido[2,1-c][1,4]oxazine]-2′-carboxamide, N-[[4-fluoro-2-(5-methyl-1H-1,2,3-triazol-1-yl)phenyl]methyl]-6′,7′-dihydro-3′-hydroxy-4′-oxo-] fall in the same range of IC50: 1 to 10 nM for the first, 1 to 10 nM for the second.

Compared with `CC(C)(C)c1cn(-c2cc(F)ccc2CNC(=O)c2nc3n(c(=O)c2O)CCOC32CCC2)nn1` [Example 103, Spiro[cyclobutane-1,9′(4′H)-pyrimido[2,1-c][1,4]oxazine]-2′-carboxamide, N-[[2-[4-(1,1-dimethylethyl)-1H-1,2,3-triazol-1-yl]-4-fluorophenyl]methyl]-6′,7′-dihydro-3′-hydroxy-4′-oxo-], `O=C(NCc1ccc(F)cc1-n1cncn1)c1nc2n(c(=O)c1O)CCOC21COC1` [Example 110, Spiro[oxetane-3,9′(4′H)-pyrimido[2,1-c][1,4]oxazine]-2′-carboxamide, N-[[4-fluoro-2-(1H-1,2,4-triazol-1-yl)phenyl]methyl]-6′,7′-dihydro-3′-hydroxy-4′-oxo-] is lower in IC50: 10 to 100 nM for the first, 1 to 10 nM for the second.
